Results: the RepoRT retention time repository

Assay: HILIC, Merck SeQuant ZIC-HILIC, 25 °C, 0.25 mL/min; A: water + 16 mM ammonium formate; B: acetonitrile + 0.1% formic acid, pH 3; gradient (min/%B) 0/97 2/97 10/70 15/10 17/10 18/97 25/97
Conditions: stereoisomer not certain

Compound Cn1cncc1CC(NC(=O)CCN)C(=O)O (stereo not given) [ANSERINE] has an LC retention time of 16.1 min.
CC(O)(CC(=O)O)CC(=O)O [3-HYDROXYMETHYLGLUTARATE] gave an LC retention time of 4.96 min.
O=C(O)C1OC(OP(=O)(O)OP(=O)(O)OCC2OC(n3ccc(=O)[nH]c3=O)C(O)C2O)C(O)C(O)C1O (stereo not given) [URIDINE DIPHOSPHATE GLUCURONIC ACID] showed an LC retention time of 15.3 min.
In the case of CC(C)CC(=O)OC(CC(=O)[O-])C[N+](C)(C)C [Isovaleryl-L-carnitine], the LC retention time is reported as 10.2 min.
C[N+](C)(C)CCOP(=O)(O)O [PHOSPHORYLCHOLINE] showed an LC retention time of 15.6 min.
For Nc1ccc(C(=O)NCC(=O)O)cc1 [Aminohippuric acid], the LC retention time was 5.96 min.
CC(C)(CC(=O)O)C(=O)O [2-2-Dimethylsuccinic acid] showed an LC retention time of 2.18 min.
Work on O=c1ccn(C2OC(COP(=O)(O)O)C(O)C2O)c(=O)[nH]1 (stereo not given) [URIDINE MONOPHOSPHATE] yielded an LC retention time of 13.9 min.
Compound NCCCCC(=O)O [5-AMINOPENTANOATE] has an LC retention time of 12.6 min.
Work on CC(=O)NC(Cc1ccccc1)C(=O)O (stereo not given) [N-ACETYLPHENYLALANINE] yielded an LC retention time of 1.95 min.
For O=C(O)CCC(=O)O [succinic acid], the LC retention time was 2.19 min.
NCCC(=O)NC(Cc1cnc[nH]1)C(=O)O (stereo not given) [CARNOSINE] showed an LC retention time of 16 min.
Work on CCCCCCCCCCCCCCC=COCC(O)COP(=O)([O-])OCC[N+](C)(C)C (stereo not given) [C16_PlasmLPC] yielded an LC retention time of 11.1 min.
For CC(=O)NC(Cc1c[nH]c2ccccc12)C(=O)O (stereo not given) [N-ACETYLTRYPTOPHAN], the LC retention time was 2.15 min.
In the case of O=C(O)C(=O)Cc1ccccc1 [PHENYLPYRUVATE], the LC retention time is reported as 2.18 min.
Work on CC(=O)Oc1cccc(O)c1 [RESORCINOL MONOACETATE] yielded an LC retention time of 1.71 min.
Compound CCCCCCCCCCCCCCCC(=O)OCC(O)COP(=O)(O)O (stereo not given) [16:0_LysoPA] has an LC retention time of 9.22 min.
O=P(O)(O)OC1OC(CO)C(O)C(O)C1O (stereo not given) [GALACTOSE 1-PHOSPHATE] showed an LC retention time of 14.7 min.
Compound CC(=O)NC(CC(=O)O)C(=O)O (stereo not given) [N-ACETYLASPARTATE] has an LC retention time of 8.76 min.
For CC(CCCC(C)(C)O)C1CCC2C3CC=C4CC(O)CCC4(C)C3CCC12C (stereo not given) [25-HYDROXYCHOLESTEROL], the LC retention time was 1.6 min.
CCCCCCCCCC(=O)OCC(COP(=O)([O-])OCC[N+](C)(C)C)OC(=O)CCCCCCCCC (stereo not given) [DIDECANOYL-GLYCEROPHOSPHOCHOLINE] showed an LC retention time of 10.6 min.
With NC(CCSCC(N)C(=O)O)C(=O)O (stereo not given) [CYSTATHIONINE] the LC retention time was 15.4 min.
Nc1nc2c(ncn2C2CC(O)C(COP(=O)(O)OP(=O)(O)O)O2)c(=O)[nH]1 (stereo not given) [DGDP] gave an LC retention time of 15.2 min.
Work on O=C(O)CC(O)(CC(=O)O)C(=O)O [CITRATE] yielded an LC retention time of 13 min.
Compound O=C(O)C(=O)CS [MERCAPTOPYRUVATE] has an LC retention time of 13.8 min.
For CC(=O)N[C@@H]1[C@@H](O)[C@H](O)[C@@H](CO)O[C@H]1N [2-ACETAMIDO-2-DEOXY-BETA-D-GLUCOSYLAMINE], the LC retention time was 14.5 min.
Nc1ncnc2c1ncn2C1OC(COP(=O)(O)OP(=O)(O)OCC2OC(O)C(O)C2O)C(O)C1O (stereo not given) [ADENOSINE DIPHOSPHATE RIBOSE] gave an LC retention time of 14.6 min.
For Cc1cn(C2CC(O)C(CO)O2)c(=O)[nH]c1=O (stereo not given) [THYMIDINE], the LC retention time was 2.17 min.
Compound CCCCCCCCCCCCCC(=O)OCC(O)COP(=O)([O-])OCC[N+](C)(C)C (stereo not given) [14-0_LysoPC] has an LC retention time of 11.3 min.
With CCC(C)C(N)C(=O)O (stereo not given) [ISOLEUCINE] the LC retention time was 11.6 min.
Work on Cc1ncc(C[n+]2csc(CCOP(=O)([O-])OP(=O)(O)O)c2C)c(N)n1 [THIAMINE PYROPHOSPHATE] yielded an LC retention time of 16.5 min.
Work on CC12CCC(=O)C=C1CCC1C2CCC2(C)C1CCC2(O)C(=O)CO (stereo not given) [CORTEXOLONE] yielded an LC retention time of 1.71 min.
For Cn1c(=O)[nH]c(=O)c2c1[nH]c(=O)n2C [3-7-Dimethyluric acid], the LC retention time was 2.24 min.
In the case of Nc1ncnc2c1ncn2C1OC(COP(=O)(O)O)C(OP(=O)(O)O)C1O (stereo not given) [ADENOSINE 3'-5'-DIPHOSPHATE], the LC retention time is reported as 14.9 min.
NC(CCCC(=O)O)C(=O)O (stereo not given) [AMINOADIPATE] gave an LC retention time of 13.8 min.
In the case of O=C([O-])C=CC(=O)[O-] [MALEATE], the LC retention time is reported as 2.17 min.
Compound Cn1cnc(C[C@H](N)C(=O)O)c1 [1-METHYL-L-HISTIDINE] has an LC retention time of 15.8 min.
For NC(=O)C1CCCN1C(=O)C(Cc1cnc[nH]1)NC(=O)C1CCC(=O)N1 (stereo not given) [THYROTROPIN RELEASING HORMONE], the LC retention time was 13.3 min.
O=C(O)C(=O)O [OXALATE] showed an LC retention time of 17.5 min.
CC(=O)C1(O)CCC2C3CC=C4CC(O)CCC4(C)C3CCC21C (stereo not given) [17a-Hydroxypregnenolone_H2] showed an LC retention time of 2.17 min.
CC(=O)NC(CS)C(=O)O (stereo not given) [N-ACETYLCYSTEINE] showed an LC retention time of 3.43 min.
CC(CC(=O)O)C(=O)O (stereo not given) [Methyl-succinic acid] gave an LC retention time of 2.18 min.
Work on C[N+](C)(C)[O-] [trimethylamine N-oxide] yielded an LC retention time of 11.9 min.
Cc1ncc(CO)c(CN)c1O [PYRIDOXAMINE] gave an LC retention time of 14.6 min.
For NC(=O)c1ccc[n+](C2OC(COP(=O)(O)OP(=O)(O)OCC3OC(n4cnc5c(N)ncnc54)C(O)C3O)C(O)C2O)c1 (stereo not drawn) [BETA-NICOTINAMIDE ADENINE DINUCLEOTIDE], the LC retention time was 14.6 min.
